Results taken from PubChem BioAssay (NCI).
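Step 1: Grow cells in 96-well plates. Step 2: Expose to compound for 48 hours at 5 concentrations. Step 3: Interpolate endpoints linearly; if unreached, use highest concentration. TGI marks complete inhibition of growth.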

Legend:
Test in all cases: DTP human tumour cell line panel, 48 h
786-0 renal = test system: 786-0 renal
A549 NSCLC = test system: A549 NSCLC
ACHN renal = test system: ACHN renal
CAKI-1 renal = test system: CAKI-1 renal
CCRF-CEM leukemia = test system: CCRF-CEM leukemia
COLO 205 colon = test system: COLO 205 colon
DLD-1 colon = test system: DLD-1 colon
DMS 114 small cell lung = test system: DMS 114 small cell lung
EKVX NSCLC = test system: EKVX NSCLC
HCC-2998 colon = test system: HCC-2998 colon
HCT-116 colon = test system: HCT-116 colon
HCT-15 colon = test system: HCT-15 colon
HOP-18 NSCLC = test system: HOP-18 NSCLC
HOP-62 NSCLC = test system: HOP-62 NSCLC
HT29 colon = test system: HT29 colon
IGROV1 ovarian = test system: IGROV1 ovarian
K-562 leukemia = test system: K-562 leukemia
KM12 colon = test system: KM12 colon
KM20L2 colon = test system: KM20L2 colon
LOX IMVI melanoma = test system: LOX IMVI melanoma
LXFL 529 NSCLC = test system: LXFL 529 NSCLC
M14 melanoma = test system: M14 melanoma
M19-MEL melanoma = test system: M19-MEL melanoma
MALME-3M melanoma = test system: MALME-3M melanoma
MOLT-4 leukemia = test system: MOLT-4 leukemia
NCI-H226 lung = test system: NCI-H226 lung
NCI-H23 lung = test system: NCI-H23 lung
NCI-H460 lung = test system: NCI-H460 lung
NCI-H522 lung = test system: NCI-H522 lung
OVCAR-3 ovarian = test system: OVCAR-3 ovarian
OVCAR-4 ovarian = test system: OVCAR-4 ovarian
OVCAR-5 ovarian = test system: OVCAR-5 ovarian
OVCAR-8 ovarian = test system: OVCAR-8 ovarian
RPMI-8226 leukemia = test system: RPMI-8226 leukemia
RXF 393 renal = test system: RXF 393 renal
SF-268 CNS = test system: SF-268 CNS
SF-295 CNS = test system: SF-295 CNS
SF-539 CNS = test system: SF-539 CNS
SK-MEL-2 melanoma = test system: SK-MEL-2 melanoma
SK-MEL-28 melanoma = test system: SK-MEL-28 melanoma
SK-MEL-5 melanoma = test system: SK-MEL-5 melanoma
SK-OV-3 ovarian = test system: SK-OV-3 ovarian
SN12C renal = test system: SN12C renal
SNB-19 CNS = test system: SNB-19 CNS
SNB-75 CNS = test system: SNB-75 CNS
SNB-78 CNS = test system: SNB-78 CNS
SW-620 colon = test system: SW-620 colon
TK-10 renal = test system: TK-10 renal
U251 CNS = test system: U251 CNS
UACC-257 melanoma = test system: UACC-257 melanoma
UACC-62 melanoma = test system: UACC-62 melanoma
UO-31 renal = test system: UO-31 renal
XF 498 CNS = test system: XF 498 CNS

Measured: TGI

Cc1cc2c(=O)c3ccc(Cl)cc3[nH]c2c(C(=O)O)c1C
> 100 µM: all assays above
